# Measured values as given in PMC10003360, “Antiviral Effect of Ginsenosides rk1 against Influenza a Virus Infection by Targeting the Hemagglutinin 1-Mediated Virus Attachment” (International Journal of Molecular Sciences, 2023).
# Target: T1, HA1 (Influenza A virus (A/Puerto Rico/8/1934(H1N1)), UniProt P03452)
# T1 construct: gene HA; HA1 subunit alone, cut from precursor HA0; purchased from Sino Biological; immobilised on sensor chip
# Assay: biochemical
# Assay type: binding
# T1 sequence (P03452 18-342 limits assumed): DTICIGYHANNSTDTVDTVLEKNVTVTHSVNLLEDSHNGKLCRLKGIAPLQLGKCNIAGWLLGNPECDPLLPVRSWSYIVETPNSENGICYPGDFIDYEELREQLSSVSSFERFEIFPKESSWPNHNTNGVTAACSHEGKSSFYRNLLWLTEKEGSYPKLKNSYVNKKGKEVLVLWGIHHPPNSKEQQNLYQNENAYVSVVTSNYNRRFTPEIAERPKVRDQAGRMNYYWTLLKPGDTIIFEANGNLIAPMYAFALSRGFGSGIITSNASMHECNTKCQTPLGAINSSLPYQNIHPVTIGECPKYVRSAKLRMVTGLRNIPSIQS
structure (smiles),measurement,value
"C=C(CCC=C(C)C)[C@H]1CC[C@]2(C)[C@@H]1[C@H](O)C[C@@H]1[C@@]3(C)CC[C@H](O[C@@H]4O[C@H](CO)[C@@H](O)[C@H](O)[C@H]4O[C@@H]4O[C@H](CO)[C@@H](O)[C@H](O)[C@H]4O)C(C)(C)[C@@H]3CC[C@]12C [G-rk1, ginsenoside rk1]",Kd,93.3 nM
